For assay [1], the system named is tubulin. In words: inhibition of tubulin polymerization in vitro (turbidity at 350 nm). The settings on record: for IC50: read-out: IC50 (concentration required to inhibit tubulin polymerization by 50%), method of Example 1, average ± S.D., obtained graphically. Format: biochemical. How it is done:
Anti-mitotic activity can be evaluated by testing the ability of an estradiol derivative to inhibit tubulin polymerization and microtubule assembly in vitro. Microtubule assembly is followed in a Gilford recording spectrophotometer (model 250 or […]) equipped with electronic temperature controllers. […] The 0.24 ml reaction mixtures are incubated for 15 min. at 37° C. and then chilled on ice. After addition of 10 μl 2.5 mM GTP, the reaction mixture is transferred to a cuvette at 0° C., and a baseline established. At time zero, the temperature controller of the spectrophotometer is set at 37° C. Microtubule assembly is evaluated by increased turbity at 350 nm. […] The 0.24 ml reaction mixtures were incubated for 15 min at 37° C. and chilled on ice. After addition of 10 μl of 2.5 mM GTP the reaction mixtures were transferred to cuvettes held at 0° C., and baselines were established. At time zero the temperature controller was set at 37° C. At the times indicated by the vertical dashed lines the temperature controller was set at the indicated temperatures. […] The 0.24 ml reaction mixtures were incubated for 15 min at 26° C. and chilled on ice. After addition of 10 μl of 10 mM GTP the reaction mixtures were transferred to cuvettes held at 0° C., and baselines were established. At time zero the temperature controller was set at 26° C. At the time indicated by vertical dashed line the temperature controller was set at 0° C.

Assay [2] has as its system tubulin. In words: inhibition of [3H]colchicine binding to tubulin. The settings on record: 1.0 μM tubulin, 5% DMSO, 10 min at 37° C.; for Percent inhibition ± S.D. of colchicine binding to tubulin: 100 μM inhibitor, 2 μM [3H]colchicine.
Description: Incubation was for 10 min at 37° C.
Incubation was for 10 min at 37° C. […] S.D., standard deviation.
The test system of assay [3] is chick embryo chorioallantoic membrane new blood vessel cells (angiogenesis). In words: chick embryo chorioallantoic membrane (CAM) assay. It is filed as in vivo. The settings on record: 100 mg disk (methylcellulose disc) on CAM, after 48 hours. On the procedure:
Anti-mitotic activity is evaluated in situ by testing the ability of an improved estradiol derivative to inhibit the proliferation of new blood vessel cells (angiogenesis). A suitable assay is the chick embryo chorioallantoic membrane (CAM) assay described by Crum et al. Science 230:1375 (1985). See also, U.S. Pat. No. 5,001,116, hereby incorporated by reference, which describes the CAM assay. Briefly, fertilized chick embryos are removed from their shell on day 3 or 4, and a methylcellulose disc containing the drug is implanted on the chorioallantoic membrane. The embryos are examined 48 hours later and, if a clear avascular zone appears around the methylcellulose disc, the diameter of that zone is measured.

Take `COc1ccc2c(c1)CC[C@@H]1[C@@H]2CC[C@]2(C)[C@@H](O)CC[C@@H]12` [Estradiol-3-O-methyl ether]: in the assay with tubulin [1], the IC50 was more than 40 µM. As for `COc1cc2c(cc1O)CC[C@@H]1[C@@H]2CC[C@]2(C)C(=O)CC[C@@H]12` [2-Methoxyestrone], the IC50 with tubulin [1] came to 8.8 ± 1 µM. In addition, the “Percent inhibition ± S.D. of colchicine binding to tubulin” value with tubulin [2] was determined as 57 ± 6%. Take `COc1ccc(CCc2cc(OC)c(OC)c(OC)c2)cc1O` [Dihydrocombretastatin A-4, reference compound]: the IC50 in the assay with tubulin [1] came out at 0.63 ± 0.03 µM. Same read-out and setting: in the case of `COc1cc2c(cc1OC)C1CCC3(C)C(O)CCC3C1CC2` (stereo not shown) [2-Methoxyestradiol-3-O-methyl ether] it was more than 40 µM. On the same count and under the same terms, in the case of `C[C@]12CC[C@@H]3c4cc(Br)c(O)cc4CC[C@H]3[C@@H]1CC[C@@H]2O` [2-Bromoestradiol] it was 4.5 ± 0.6 µM. With `COc1cc2c(cc1O)CCC1C2CCC2(C)C(O)CCC12` (stereo not shown) [2-Methoxyestradiol], in assay [3], the “inhibition of cell mitosis and growth of new blood vessels” value was “inhibit cell mitosis and the growth of new blood vessels”. In addition, in the assay on tubulin [1] (20-75 μM at 37° C. (A) or 1.0-4.0 μM at 26° C. (B)), the “inhibition of tubulin polymerization (FIG. 1)” value is on record as “inhibition of tubulin polymerization”. For the same compound, the IC50 with tubulin [1] stood at 1.9 ± 0.2 µM. The “inhibition of colchicine binding to tubulin (FIG. 2)” value in the assay with tubulin [2] (5 μM [3H]colchicine) was “inhibits colchicine binding to tubulin”. Besides, in the assay with tubulin [2], the “Percent inhibition ± S.D. of colchicine binding to tubulin” value turned out to be 82 ± 2%. For the compound `COc1cc2c(cc1O)CC[C@@H]1[C@@H]2CC[C@]2(C)[C@@H](O)[C@H](O)C[C@@H]12` [2-Methoxyestriol], the IC50 in the assay with tubulin [1] is more than 40 µM. On the same count and under the same terms, in the case of `C[C@]12CC[C@@H]3c4cc(F)c(O)cc4CC[C@H]3[C@@H]1CC[C@@H]2O` [2-Fluoroestradiol] it was 27 ± 6 µM; in that of `COc1ccc2c(c1OC)CCC1C2CCC2(C)C(O)CCC12` (stereo not shown) [4-Methoxyestradiol-3-O-methyl ether], more than 40 µM; in that of `C#C[C@]1(O)CC[C@H]2[C@@H]3CCc4cc(O)c(OC)cc4[C@H]3CC[C@@]21C` [2-Methoxy-17-ethynylestradiol], more than 40 µM. Still for that read-out and setting: in the case of `C[C@]12CC[C@@H]3c4ccc(O)cc4CC[C@H]3[C@@H]1C[C@@H](O)[C@@H]2O` [Estriol, reference compound] it was more than 40 µM. Turning to `C#C[C@]1(O)CC[C@H]2[C@@H]3CCc4cc(O)ccc4[C@H]3CC[C@@]21C` [17-Ethynylestradiol, reference compound], the IC50 in the assay on tubulin [1] stood at 10 ± 2 µM. The “Percent inhibition ± S.D. of colchicine binding to tubulin” value in the assay on tubulin [2] worked out at 50 ± 7%.

With `COc1c(O)ccc2c1CCC1C2CCC2(C)C(O)CCC12` (stereo not shown) [4-Methoxyestradiol], the IC50 in the assay with tubulin [1] was more than 40 µM.

Source of the values: US6723858B2, “Estrogenic compounds as anti-mitotic agents” (The Children's Medical Center Corporation, priority 1993, dated 2004).
